Data: ChEMBL document CHEMBL1201862, “PubChem BioAssay data set” (2004)
Active and inactive are the calls of the source.

Columns and labels:
[1] = molecular target: T1, Cytochrome P450 1A2 (Homo sapiens, UniProt P05177);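 note: PubChem cytochrome P450 panel assay, CYP1A2 panel member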
T1 sequence (P05177 whole entry): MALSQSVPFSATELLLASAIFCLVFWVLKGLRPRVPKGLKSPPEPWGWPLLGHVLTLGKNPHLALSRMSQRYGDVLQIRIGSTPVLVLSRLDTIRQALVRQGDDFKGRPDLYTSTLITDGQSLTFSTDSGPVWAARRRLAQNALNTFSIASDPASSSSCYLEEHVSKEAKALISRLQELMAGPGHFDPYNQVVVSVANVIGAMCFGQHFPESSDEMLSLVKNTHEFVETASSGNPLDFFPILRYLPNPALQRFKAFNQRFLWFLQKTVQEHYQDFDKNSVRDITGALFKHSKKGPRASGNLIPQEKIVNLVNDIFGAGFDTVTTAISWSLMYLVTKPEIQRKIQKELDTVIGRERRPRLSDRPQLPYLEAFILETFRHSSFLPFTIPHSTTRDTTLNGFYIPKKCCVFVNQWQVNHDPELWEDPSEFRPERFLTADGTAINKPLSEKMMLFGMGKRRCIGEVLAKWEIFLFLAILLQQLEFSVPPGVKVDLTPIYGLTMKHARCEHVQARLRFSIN

[2] = molecular target: T2, Corticotropin-releasing factor receptor 2/Corticotropin-releasing factor-binding protein (Homo sapiens, UniProt P24387+Q13324); experiment: activators of CRF receptor 2 with binding protein – uHTS hits, confirmation (AID 602473); format: functional; conditions: read-out: EC50_Mean
T2 sequence (Q13324 whole entry): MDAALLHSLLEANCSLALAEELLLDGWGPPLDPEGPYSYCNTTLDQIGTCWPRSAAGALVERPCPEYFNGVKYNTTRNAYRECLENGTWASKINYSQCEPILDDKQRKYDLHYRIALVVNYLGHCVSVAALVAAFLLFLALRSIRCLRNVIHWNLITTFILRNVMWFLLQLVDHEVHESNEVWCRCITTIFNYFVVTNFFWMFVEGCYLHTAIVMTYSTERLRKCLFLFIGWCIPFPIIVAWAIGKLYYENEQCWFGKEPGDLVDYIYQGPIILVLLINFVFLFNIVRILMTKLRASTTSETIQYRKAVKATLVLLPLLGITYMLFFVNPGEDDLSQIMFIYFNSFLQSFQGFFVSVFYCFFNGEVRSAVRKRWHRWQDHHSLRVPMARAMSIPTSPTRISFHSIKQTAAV
T2 sequence (P24387 whole entry): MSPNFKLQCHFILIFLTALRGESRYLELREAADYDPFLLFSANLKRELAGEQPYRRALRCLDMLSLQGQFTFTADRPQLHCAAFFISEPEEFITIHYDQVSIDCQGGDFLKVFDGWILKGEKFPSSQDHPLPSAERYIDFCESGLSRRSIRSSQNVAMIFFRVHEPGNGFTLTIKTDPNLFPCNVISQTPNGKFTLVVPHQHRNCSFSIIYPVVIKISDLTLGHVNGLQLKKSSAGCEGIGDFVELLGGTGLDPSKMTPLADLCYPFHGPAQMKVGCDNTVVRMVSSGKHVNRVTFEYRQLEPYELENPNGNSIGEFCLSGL

[3] = molecular target: T2, Corticotropin-releasing factor receptor 2/Corticotropin-releasing factor-binding protein; experiment: Dose Response confirmation of uHTS hits for small molecule antagonists of the CRF-binding protein and CRF-R2 receptor complex.; format: functional; conditions: read-out: IC50_Mean
[4] = NIH3T3 cell viability loss – ATP luminescence, mouse fibroblasts, counter-screen, dose response (AID 2010); format: functional, cell-based;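 note: cells exposed to compound for about 90 hours before reading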
[5] = Trypanosoma cruzi growth suppression in host cells – NIH3T3 host cells, beta-gal luminescence, confirmation (AID 2044); format: functional, cell-based;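 note: intracellular parasites grown in NIH/3T3 mouse fibroblasts as host cells; luminescent beta-galactosidase reporter signal from transgenic T. cruzi replicating inside host cells; inhibitors lower the luminescence signal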
[6] = NIH-3T3 fibroblast cytotoxicity, dose response, cytotoxicity control, cell-based, fluorescence, Alamar Blue, secondary assay (AID 2327); format: functional;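 note: NIH-3T3 mouse fibroblasts cultured with fluconazole at 8 µg/mL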
[7] = fluconazole-exposed Candida albicans growth modulators – fluorescence, retest, confirmation (AID 2467); format: functional, cell-based
[8] = molecular target: Cytochrome P450 2C9 (Homo sapiens, UniProt P11712)
Chain of Cytochrome P450 2C9 (P11712 whole entry): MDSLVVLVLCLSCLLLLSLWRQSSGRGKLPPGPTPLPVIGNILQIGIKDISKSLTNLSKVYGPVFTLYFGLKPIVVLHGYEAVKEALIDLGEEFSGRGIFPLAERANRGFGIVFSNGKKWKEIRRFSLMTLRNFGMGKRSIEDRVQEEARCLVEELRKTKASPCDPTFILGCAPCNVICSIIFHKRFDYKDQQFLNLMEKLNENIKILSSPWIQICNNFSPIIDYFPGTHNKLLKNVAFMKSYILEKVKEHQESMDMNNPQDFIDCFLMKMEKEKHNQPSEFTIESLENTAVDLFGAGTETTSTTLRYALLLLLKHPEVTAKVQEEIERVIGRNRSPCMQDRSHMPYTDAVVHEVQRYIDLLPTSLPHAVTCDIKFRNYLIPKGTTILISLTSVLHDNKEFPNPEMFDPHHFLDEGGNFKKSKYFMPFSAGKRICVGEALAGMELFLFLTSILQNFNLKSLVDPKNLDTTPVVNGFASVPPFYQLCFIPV

[9] = test system: H4; experiment: Luminescence Cell-Based Dose Response HTS to Identify Activators of 5'UTR Stem-Loop Driven Prion Protein mRNA Translation in H4 Neuroglioblastoma Cells. [Related pubchem assays: 1829 (Project Summary), 1814 (Primary HTS)]; format: functional; conditions: Homo sapiens
[10] = molecular target: T3, Rac GTPase-activating protein 1 (Homo sapiens, UniProt Q9H0H5); experiment: blockers of MgcRacGAP-driven Rac1 GTP hydrolysis – biochemical, ADP Hunter fluorescence, primary and confirmatory, confirmation (AID 624330); format: functional
T3 sequence (Q9H0H5 whole entry): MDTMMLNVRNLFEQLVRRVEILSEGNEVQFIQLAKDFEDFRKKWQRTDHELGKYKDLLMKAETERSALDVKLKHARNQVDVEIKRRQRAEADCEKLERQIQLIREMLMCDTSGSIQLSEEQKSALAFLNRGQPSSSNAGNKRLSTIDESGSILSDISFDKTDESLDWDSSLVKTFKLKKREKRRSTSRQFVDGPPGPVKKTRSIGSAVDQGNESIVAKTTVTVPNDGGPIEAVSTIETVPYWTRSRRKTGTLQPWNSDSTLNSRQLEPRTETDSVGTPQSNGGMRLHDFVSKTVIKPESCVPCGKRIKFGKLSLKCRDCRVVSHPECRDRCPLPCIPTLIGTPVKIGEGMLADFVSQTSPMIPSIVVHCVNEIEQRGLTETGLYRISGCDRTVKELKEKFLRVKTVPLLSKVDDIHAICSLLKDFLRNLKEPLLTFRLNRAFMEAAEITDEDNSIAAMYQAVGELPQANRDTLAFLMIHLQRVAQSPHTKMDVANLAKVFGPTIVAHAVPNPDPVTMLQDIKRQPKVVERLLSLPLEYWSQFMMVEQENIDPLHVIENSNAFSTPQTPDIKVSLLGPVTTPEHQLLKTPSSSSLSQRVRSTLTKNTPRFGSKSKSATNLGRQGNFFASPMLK

[11] = Luminescence Cell-Based Dose Retest to Confirm Inhibitors of Cancer Stem Cells. [Related pubchem assays (depositor defined):AID2717, AID2721]; format: functional; conditions: Homo sapiens
[12] = test system: Streptococcus sp. 'group A'; experiment: Streptococcus pyogenes SK(-)GAS viability under kanamycin – luminescence, BacTiterGlo, confirmation, counter-screen for streptokinase expression inhibitor project, dose response (AID 1900); format: functional, organism-based
[13] = test system: INS1; experiment: INS-1E survival protection against cytokine death – cell-based, luminescence, retest, dose response (AID 449756); format: functional; conditions: Rattus norvegicus;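 note: cell death triggered by IL-1 beta plus TNF-alpha plus IFN-gamma mixture; protective hits raise ATP signal compared with cytokine alone wells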
[14] = test system: Streptococcus; experiment: GAS UMAA2166 growth inhibition – luminescence, BacTiterGlo, counter-screen for streptokinase expression inhibitor project, dose response (AID 1915); format: functional, organism-based;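 note: potency for reduction of bacterial viability or growth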
[15] = P. falciparum Dd2 growth inhibitors, dose response, SYBR Green, cherry-picked samples (AID 1159567); format: functional, cell-based

SMILES: CCCNC(=N)NCCC[C@H](N)C(=O)O
- AC50 [1]: 31.6 µM (inconclusive)

SMILES: CCOc1ccc(C(CCc2ccccc2)NC(=O)c2ccccc2OC)cc1OCC (configuration not stated)
- EC50 [2]: > 53 µM (inactive)
- IC50 [3]: > 47.1 µM (inactive)

SMILES: O=C(NNC(=O)c1ccccc1C(=O)O)c1ccc(O)cc1
- EC50 [2]: > 53 µM (inactive)
- IC50 [3]: > 47.1 µM (inactive)

SMILES: CS(=O)(=O)Oc1ccc(Br)c2cccnc12
- EC50 [2]: > 53 µM (inactive)
- IC50 [3]: > 47.1 µM (inactive)

SMILES: Cc1c(C(=O)O)sc(S(=O)(=O)N2CCN(C(=O)Cc3ccc(F)cc3)CC2)c1C(=O)O
- EC50 [2]: > 53 µM (inactive)
- IC50 [3]: > 47.1 µM (inactive)

SMILES: c1ccc(COc2ccccc2CNC23CC4CC(CC(C4)C2)C3)cc1
- EC50 [4]: > 60 µM (not active)
- EC50 [5]: 2.36 µM (active)
- EC50 [6]: > 160 µM (inactive)
- EC50 [7]: > 38 µM (not active)

SMILES: CCOC(=O)c1c(NC(=O)Cn2nc([N+](=O)[O-])c(Br)c2C)sc2c1CCC(C)C2 (configuration not stated)
- AC50 [8]: 3.55 µM (inconclusive)
- AC50 [1]: 2.82 µM (inconclusive)

SMILES: COc1ccc(C(=O)N2CCC3(CC2)CN(C(=O)Nc2ccccc2)C3)cc1
- AC50 [1]: 25.1 µM (inconclusive)

SMILES: COc1ccc(/C=C2\CCn3c2nc2ccccc2c3=O)cc1OC
- EC50 [9]: 1.08 µM (active)

SMILES: O=C(C1CCN(S(=O)(=O)c2cccc3nsnc23)CC1)N1CCCc2ccccc21
- AC50 [8]: 39.8 µM (inconclusive)
- AC50 [1]: 10 µM (inconclusive)

SMILES: Cc1ccc(S(=O)(=O)c2nc(S(C)(=O)=O)sc2N2CCOCC2)cc1
- EC50 [2]: > 53 µM (inactive)
- IC50 [3]: > 47.1 µM (inactive)

SMILES: O=C(CCCOc1ccc(Cl)cc1)Nc1cccc(C(=O)O)c1
- EC50 [2]: > 53 µM (inactive)
- IC50 [3]: > 47.1 µM (inactive)

SMILES: COc1ccc(CN2CCN(Cc3ccccc3OC)CC2)cc1
- IC50 [10]: 74.7 µM (active)

SMILES: Cc1noc(C)c1S(=O)(=O)N1CCC(C(=O)N2CCN(c3ccc(Cl)cc3)CC2)CC1
- EC50 [2]: > 53 µM (inactive)
- IC50 [3]: > 47.1 µM (inactive)

SMILES: c1cc2c(cc1CNc1ccc(N3CCOCC3)cc1)OCO2
- IC50 [10]: 6.57 µM (active)

SMILES: CCN(CC)c1ccc(N2C(=O)/C(=C/c3cccnc3)SC2=S)cc1
- AC50 [1]: 6.31 µM (inconclusive)

SMILES: CCCc1ccc(C(=O)NNc2ccc(F)cc2)cc1
- EC50 [6]: 13 µM (inconclusive)
- EC50 [7]: > 38 µM (not active)
- AC50 [11]: 1.03 µM (active)

SMILES: CN(C)c1ccc(/C=C2/C(=O)NC(=O)N(Cc3ccco3)C2=O)cc1
- IC50 [10]: 142 µM (active)

SMILES: O=C1N=C(N2CCOCC2)S/C1=C1\C(=O)N(Cc2ccccc2)c2ccccc21
- EC50 [9]: 45 µM (inconclusive)

SMILES: O=C(O)C[C@@H](C(=O)O)c1ccccc1[N+](=O)[O-]
- AC50 [1]: 0.794 µM (inconclusive)

SMILES: CC(C)NC1=NN=C(c2ccc(Cl)c(Cl)c2)CS1
- EC50 [9]: 0.597 µM (active)

SMILES: CC1CCCC(N2CCN(C(=O)c3ccc([N+](=O)[O-])cc3)CC2)C1 (configuration not stated)
- IC50 [10]: 167 µM (active)

SMILES: COc1ccc(C(=O)N2CCC[C@@]3(CCN(c4cccc(-c5ccccc5)c4)C3)C2)cc1
- AC50 [1]: 12.6 µM (inconclusive)

SMILES: CCN(CC)CCN(C(=O)c1ccc2ccccc2c1)c1nc2ccc(OC)cc2s1
- EC50 [6]: > 160 µM (inactive)
- EC50 [7]: > 38 µM (not active)

SMILES: COc1ccc(C#Cc2c(-c3ccccc3)n(-c3ccccc3)c3ccc(CO)cc23)cc1
- EC50 [2]: > 53 µM (inactive)
- IC50 [3]: > 47.1 µM (inactive)

SMILES: COc1ccc(NC(=O)CSc2nnc(C3CC3)n2N)cc1
- AC50 [8]: 28.2 µM (inconclusive)
- AC50 [1]: 39.8 µM (inconclusive)

SMILES: CCN1C(=O)CC2CCCC1C2 (configuration not stated)
- EC50 [2]: > 53 µM (inactive)
- IC50 [3]: > 47.1 µM (inactive)

SMILES: CCN(CC)c1ccc(/C=N/NC(=O)OC)c(O)c1
- IC50 [10]: 66 µM (active)

SMILES: COc1cc(OC)c2cc(C(=O)N/N=C/c3ccccc3O)[nH]c2c1
- EC50 [12]: 0.781 µM (active)
- AC50 [13]: 3.06 µM (active)
- EC50 [6]: 23.1 µM (active)
- EC50 [7]: 1.47 µM (active)
- EC50 [14]: 7.68 µM (active)

SMILES: COc1cc(C=C2CN(C)C(=O)C2=O)ccc1O
- IC50 [10]: 19.6 µM (active)

SMILES: O=C(N/N=C/c1ccc(O)c2ccccc12)c1cccnc1
- IC50 [10]: 127 µM (active)

SMILES: CO[C@H]1CN(C)C(=O)c2cc(NC(=O)c3nc4ccccc4s3)ccc2OC[C@@H](C)NC[C@@H]1C
- AC50 [15]: 7.49 µM (active)

SMILES: COc1cccc(C#Cc2ccc([C@H]3[C@@H](C#N)N(C(=O)C4CCCC4)[C@@H]3CO)cc2)c1
- AC50 [15]: 5.62 µM (active)

SMILES: COc1cccc(-c2ccc3c(c2)[C@H]2[C@H](CCN2C(=O)C2CCCC2)[C@@H](CO)N3)c1
- AC50 [15]: 6.77 µM (active)

SMILES: CCC(=O)N1CC2(C1)[C@@H](c1ccc(-c3cccc(OC)c3)cc1)[C@@H](CO)N2C(C)=O
- AC50 [15]: 22.2 µM (active)

SMILES: COc1ccc(S(=O)(=O)N(C)C[C@@H]2OCc3ccccc3-c3c(n(C)c4ccccc34)C(=O)N([C@H](C)CO)C[C@H]2C)cc1
- AC50 [15]: 4.65 µM (active)

SMILES: Cc1ccc(-c2ccc3c(c2)O[C@@H](CN(C)Cc2cccnc2)[C@@H](C)CN([C@@H](C)CO)S3(=O)=O)cc1
- AC50 [15]: 5.62 µM (active)

SMILES: Cc1ccc(-c2ccc([C@H]3[C@@H]4CN(S(=O)(=O)c5ccccc5)C[C@H]3N4)cc2)cc1
- AC50 [15]: 3.66 µM (active)

SMILES: COc1cccc(NC(=O)Nc2ccc3c(c2)C(=O)N(C)C[C@@H](OC)[C@H](C)CN[C@@H](C)CO3)c1
- AC50 [15]: 22.8 µM (active)

SMILES: CSc1ccc2c(c1)N(CCCN(C)C)c1ccccc1S2
- AC50 [1]: 1.26 µM (inconclusive)
